How the values were obtained:
[1] = Crystallization of CBD blends with different diluents after addition of crystal seed; assay type: physicochemical; set-up: key to crystallization of CBD: +: crystallization; −: no crystallization; conditions: for crystallization of CBD: 1% flavor, crystal seed, 22° C., one week; for concentration of CBD stabilized in the composition: at the diluent concentration that prevents crystallization
Experimental: 5 g of the following different blends were prepared. The blends contained a CBD distillate containing 92% of CBD, a diluent at different concentrations and 1% natural flavor (Girl School cookies from Floraplex—USA). The diluent was phytol, natural bisabolol or a combination of phytol and natural bisabolol. 2 mg of crystal seed were added to the vial to initiate crystallization. The vials were stored at 22° C. The vials were checked after a week to see if there is crystallization.

[2] = Stability of oversaturated CBD blend to crystallization; assay type: physicochemical; set-up: key: +: crystallization; −: no crystallization; conditions: one week at 10 or 22° C.
Experimental: Vials were prepared with 5 ml of oversaturated blend of CBD with different diluent. The blend was composed of CBD distilled oil (containing 90% CBD and less than 1% bisabolol) or CBD isolate (more than 99% CBD), and natural bisabolol and phytol. The stability of the solution to crystallization in the vial after a week of storage at either 10 or 22° C. is presented in Table 7.

[3] = 28% diluent in blend, CBD distillate 92% CBD
[4] = 32% diluent in blend, CBD distillate 92% CBD
[5] = 36% diluent in blend, CBD distillate 92% CBD

Row | Structure (SMILES) | crystallization of CBD [1, 3] | crystallization of CBD [1, 4] | crystallization of CBD [1, 5] | crystallization of CBD ([1]; 40% diluent in blend, CBD distillate 92% CBD) | crystallization of CBD ([1]; 44% diluent in blend, CBD distillate 92% CBD) | concentration of CBD stabilized in the composition [1] | concentration of diluent required to prevent crystallization ([1]; upon addition of crystallization seeds, CBD distillate 92% CBD) | Crystallization ([2]; CBD 90% distilled oil, 15% diluent in blend) | Crystallization ([2]; CBD 90% distilled oil, 5% diluent in blend) | Crystallization ([2]; CBD 90% distilled oil, 10% diluent in blend) | Crystallization ([2]; CBD 90% distilled oil, 20% diluent in blend) | Crystallization ([2]; CBD isolate, 10% diluent in blend) | Crystallization ([2]; CBD isolate, 20% diluent in blend)
1 | C/C(=C\CO)CCC[C@H](C)CCC[C@H](C)CCCC(C)C [Phytol, phytol] | + | + | + | + | − | about 50% | about 44% | + |  |  |  |  | 
2 | CC(C)=CCC[C@](C)(O)C1CC=C(C)CC1 (stereo partly drawn) [Bisabolol, α-(−)-bisabolol] | + | − | − |  |  | up to 65% |  |  | − | − | − | + | −
